Reference: patent US11248013B2, “Tricyclic inhibitors of poly(ADP-ribose)polymerase” (Rakovina Therapeutics Inc., priority 2011, dated 2022)

Target: intracellular PARP enzyme (Homo sapiens, UniProt P09874)
Test: PARP Cell Assay (IHC, intracellular poly(ADP)-ribose formation in C41 cells)
Type: cell-based
Conditions: C41 cells (Human cervical carcinoma), 2 h compound, 1.0 mM H2O2 for 10 min; read-out: EC50 (TARP cell assay)
Procedure: Inhibition of intracellular PARP enzyme was determined using an immunohistochemistry (IHC) assay. The cellular assay measures the formation of poly (ADP)-ribose catalyzed by PARP inside cells.
Anti-PAR (Ab-1) Mouse mAb (10H) (Calbiochem, AM-80); Anti-Mouse IgG (whole molecule)-FITC antibody produced in goat (sigma, F2012); DAPI (sigma, D9542).
The C41 cells (Human cervical carcinoma; ATCC No. CRL-1594) were planted into 96-well plates at 8.0E4 cells/well and incubated at 37° C. overnight. Cells were washed with 37° C. warmed PBS once and treated with test compounds for 2 h in 96-well plates. Cells were washed with 37° C. warmed PBS once, and PARP was activated by damaging DNA with 1.0 mM H2O2 for 10 min. Cells were washed with ice-cold PBS once and fixed with pre-chilled methanol/acetone (7:3) at −20° C. for 10 min. After air-drying, plates were rehydrated with PBS and blocked using 5% nonfat dry milk in PBS-Tween (0.05%) (block solution) for 30 min at room temperature. […] After washing with PBS-Tween20.5 times, analysis was performed using Vector 3 Microplate Reader (PerkinElmer) set at the excitation (485 nm) and emission (535 nm) wavelength for FITC or the excitation (364 nm) and emission (454 nm) wavelength for DAPI. […]

Chain of intracellular PARP enzyme (P09874 2-1014 limits assumed): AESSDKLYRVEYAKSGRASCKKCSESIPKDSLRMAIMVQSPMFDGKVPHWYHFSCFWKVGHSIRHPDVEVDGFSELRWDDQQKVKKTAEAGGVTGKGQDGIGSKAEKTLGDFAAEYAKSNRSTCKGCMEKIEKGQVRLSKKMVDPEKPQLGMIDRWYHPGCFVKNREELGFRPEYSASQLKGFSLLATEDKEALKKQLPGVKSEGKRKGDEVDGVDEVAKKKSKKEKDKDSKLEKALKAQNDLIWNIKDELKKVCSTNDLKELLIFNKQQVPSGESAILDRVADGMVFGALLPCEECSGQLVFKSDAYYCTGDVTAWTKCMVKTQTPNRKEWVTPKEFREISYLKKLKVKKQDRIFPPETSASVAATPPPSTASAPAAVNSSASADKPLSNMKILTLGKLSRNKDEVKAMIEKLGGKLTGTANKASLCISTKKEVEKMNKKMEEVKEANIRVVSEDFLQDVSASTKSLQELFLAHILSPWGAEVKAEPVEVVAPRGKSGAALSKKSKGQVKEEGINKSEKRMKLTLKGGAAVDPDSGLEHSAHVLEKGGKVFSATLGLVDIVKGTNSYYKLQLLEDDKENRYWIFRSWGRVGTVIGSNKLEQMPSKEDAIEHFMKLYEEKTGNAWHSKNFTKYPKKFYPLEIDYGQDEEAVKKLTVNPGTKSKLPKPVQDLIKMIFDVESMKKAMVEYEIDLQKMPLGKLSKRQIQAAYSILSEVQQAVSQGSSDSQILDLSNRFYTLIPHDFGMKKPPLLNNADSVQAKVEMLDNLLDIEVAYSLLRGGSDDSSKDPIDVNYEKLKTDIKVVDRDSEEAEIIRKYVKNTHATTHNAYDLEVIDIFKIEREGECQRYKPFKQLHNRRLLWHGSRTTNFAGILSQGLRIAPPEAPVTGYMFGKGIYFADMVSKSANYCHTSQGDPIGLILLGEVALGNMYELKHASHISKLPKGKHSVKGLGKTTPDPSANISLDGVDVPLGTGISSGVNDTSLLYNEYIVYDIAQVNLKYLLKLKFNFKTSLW

EC50 | Compound
100 to 1000 nM | CC(C)CCN1CCP(=O)(c2cc(Cc3n[nH]c(=O)c4ccccc34)ccc2F)CC1 [Example 48]

Target: PARP-1 (Homo sapiens (Human), UniProt P09874)
Sequence (P09874 whole entry): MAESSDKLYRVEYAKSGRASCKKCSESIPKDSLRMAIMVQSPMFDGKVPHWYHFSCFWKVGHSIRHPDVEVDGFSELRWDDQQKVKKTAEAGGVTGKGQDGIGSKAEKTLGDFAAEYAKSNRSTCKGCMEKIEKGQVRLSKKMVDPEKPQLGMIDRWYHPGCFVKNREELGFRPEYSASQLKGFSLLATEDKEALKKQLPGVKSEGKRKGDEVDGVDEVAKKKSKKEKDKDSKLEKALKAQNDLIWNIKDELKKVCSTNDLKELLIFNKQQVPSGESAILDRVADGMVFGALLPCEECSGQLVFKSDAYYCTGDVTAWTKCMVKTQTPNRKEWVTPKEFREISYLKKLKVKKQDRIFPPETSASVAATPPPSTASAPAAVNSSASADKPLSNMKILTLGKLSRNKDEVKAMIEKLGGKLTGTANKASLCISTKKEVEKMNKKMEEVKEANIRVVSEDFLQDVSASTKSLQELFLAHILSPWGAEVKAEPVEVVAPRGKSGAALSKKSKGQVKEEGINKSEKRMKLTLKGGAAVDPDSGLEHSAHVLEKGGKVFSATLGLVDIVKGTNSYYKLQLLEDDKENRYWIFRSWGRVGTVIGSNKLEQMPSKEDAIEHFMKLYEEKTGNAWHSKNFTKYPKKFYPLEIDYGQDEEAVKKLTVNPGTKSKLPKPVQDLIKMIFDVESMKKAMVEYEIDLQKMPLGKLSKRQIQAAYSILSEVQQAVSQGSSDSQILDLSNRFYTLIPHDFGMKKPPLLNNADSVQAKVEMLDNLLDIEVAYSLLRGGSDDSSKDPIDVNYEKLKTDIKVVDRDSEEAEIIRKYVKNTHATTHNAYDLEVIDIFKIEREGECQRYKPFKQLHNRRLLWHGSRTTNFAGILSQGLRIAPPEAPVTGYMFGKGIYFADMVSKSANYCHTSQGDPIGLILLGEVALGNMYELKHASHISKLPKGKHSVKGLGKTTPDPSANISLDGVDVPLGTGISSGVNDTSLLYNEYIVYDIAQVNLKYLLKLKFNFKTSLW
Test: PARP-1 Enzyme Assay (HT Universal Colorimetric PARP Assay Kit)
Type: biochemical
Conditions: OD450, read-out: IC50 (PARP-1 inhibition)
Procedure: Inhibition of PARP-1 enzymatic activities was measured using an HT Universal Colorimetric PARP Assay Kit (Trevigen, catalogue #4677-096-K) following the standard procedures.
Serial dilutions of PARP compounds were added to appropriate wells. The compound was incubated with PARP enzyme at RT for 10 min, and the reaction was initiated by addition of the PARP substrate cocktail, Each concentration of compound was tested in triplicate wells. After 15 min reaction, the reaction was stopped, and the Strep-HRP was added into each well and incubated for 1 h at RT. After addition of TACS-Sapphire™ colorimetric substrate and incubated in dark for 15 min, the OD450 was read out with an EnVision instrument. IC50 values (the concentration at which 50% of the enzyme activity is inhibited) were calculated, which are determined over a range of different concentrations, normally from 10 μM to 0.1 nM.

IC50 | Compound
< 100 nM | CC(C)N1CCP(=O)(c2cc(Cc3n[nH]c(=O)c4ccccc34)ccc2F)CC1 [Example 42, 4-(4-fluoro-3-(1-isopropyl-4-oxido-1,4-azaphosphinan-4-yl)benzyl)phthalazin-1(2H)-one]
< 100 nM | O=c1[nH]nc(Cc2ccc(F)c(P3(=O)CCN(CC4CC4)CC3)c2)c2ccccc12 [Example 43, 4-(3-(1-(cyclopropylmethyl)-4-oxido-1,4-azaphosphinan-4-yl)-4-fluorobenzyl)phthalazin-1(2H)-one]
< 100 nM | CCCN1CCP(=O)(c2cc(Cc3n[nH]c(=O)c4ccccc34)ccc2F)CC1 [Example 45]
< 100 nM | CC(C)(C)CN1CCP(=O)(c2cc(Cc3n[nH]c(=O)c4ccccc34)ccc2F)CC1 [Example 46, 4-(4-fluoro-3-(1-neopentyl-4-oxido-l,4-azaphosphinan-4-yl)benzyl)phthalazin-1(2H)-one]
100 to 1000 nM | CC(C)(C)CN1CCP(=O)(c2cc(Cc3n[nH]c(=O)c4ccccc34)ccc2F)CC1 [Example 47, 4-(4-fluoro-3-(1-neopentyl-4-oxido-1,4-azaphosphinan-4-yl)benzyl)phthalazin-1(2H)-one]
< 100 nM | CC(C)CCN1CCP(=O)(c2cc(Cc3n[nH]c(=O)c4ccccc34)ccc2F)CC1 [Example 48]
< 100 nM | O=c1[nH]nc(Cc2ccc(F)c(P3(=O)CCN(CC(F)(F)F)CC3)c2)c2ccccc12 [Example 49, 4-(4-fluoro-3-(4-oxido-1-(2,2,2-trifluoroethyl)-1,4-azaphosphinan-4-yl)benzyl)phthalazin-1(2H)-one]
< 100 nM | O=c1[nH]nc(Cc2ccc(F)c(P3(=O)CCN(C4CC4)CC3)c2)c2ccc(F)cc12 [Example 54, 4-(3-(1-cyclopropyl-4-oxido-1,4-azaphosphinan-4-yl)-4-fluorobenzyl)-7-fluorophthalazin-1(2H)-one]
< 100 nM | [2H]C([2H])(c1ccc(F)c(P2(=O)CCN(C3CC3)CC2)c1)c1n[nH]c(=O)c2cc(F)ccc12 [Example 55, 4-[(3-(1-cyclopropyl-4-oxido-1,4-azaphosphinan-4-yl)-4-fluorophenyl)dideuteromethyl]-7-fluorophthalazin-1 (2H)-one]
< 100 nM | O=c1[nH]nc(Cc2ccc(F)c(P3(=O)CCN(c4ncccn4)CC3)c2)c2ccc(F)cc12 [Example 56, 4-(4-fluoro-3-(4-oxido-1-(pyrimidin-2-yl)-1,4-azaphosphinan-4-yl)benzyl)-7-fluorophthalazin-1(2H)-one]
< 100 nM | [2H]C([2H])(c1ccc(F)c(P2(=O)CCN(c3ncccn3)CC2)c1)c1n[nH]c(=O)c2cc(F)ccc12 [Example 57, 4-[(4-fluoro-3-(4-oxido-1-(pyrimidin-2-yl)-1,4-azaphosphinan-4-yl)phenyl)dideuteromethyl]-7-fluorophthalazin-1(2H)-one]
< 100 nM | O=c1[nH]nc(Cc2ccc(F)c(P3(=O)CCN(c4ncc(F)cn4)CC3)c2)c2ccccc12 [compound 35, 4-(4-fluoro-3-(4-oxido-1-(5-(fluoro)pyrimidin-2-yl)-1,4-azaphosphinan-4-yl)benzyl)phthalazin-1(2H)-one]
< 100 nM | (+)-4-[[4-fluoro-3-(4-oxido-1-(pyrimidin-2-yl)-1,4-azaphosphinan-4-yl)phenyl)](hydroxymethyl)]-7-fluorophthalazin-1(2H)-one [Example 59]

Compound | IC50
CP1(=O)CCN(C(=O)c2cc(Cc3n[nH]c(=O)c4ccccc34)ccc2F)CC1 [Example 50, 4-[[4-fluoro-3-(4-methyl-4-oxo-1,4-azaphosphinane-1-carbonyl)phenyl]methyl]-2H-phthalazin-1-one] | < 100 nM
